From PubChem BioAssay AID256 (DTP/NCI, 2004)
Where “and” joins values, the source holds several entries; their conditions need not be identical. Equal entries are not always repeated. Inconclusive results and toxic doses are left out. The calls were made as follows: active = survival T/C of 150% or more; inactive = T/C below 125% in these data.

Test system: CD2F1 mice, L1210 leukemia ip, survival T/C
Experiment: NCI In Vivo Anticancer Drug Screen. Data for tumor model L1210 Leukemia (intraperitoneal) in CD2F1 (CDF1) mice
Conditions: higher = longer survival
Method in brief: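 Antitumor effect is scored in animals hosting a serially transplanted tumor. Values compare compound-dosed animals against vehicle-only controls as a simple quotient.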

[1] = endpoint: mean survival time, dose: 100.0 mg/kg/injection, schedule: Q04DX003 (ip), vehicle: saline with Tween-80
[2] = endpoint: mean survival time, dose: 100.0 mg/kg/injection, schedule: Q01DX001 (ip), vehicle: saline
[3] = endpoint: mean survival time, dose: 200.0 mg/kg/injection, schedule: Q01DX001 (ip), vehicle: saline
[4] = endpoint: mean survival time, dose: 100.0 mg/kg/injection, schedule: Q01DX009 (ip), vehicle: saline with Tween-80
[5] = endpoint: mean survival time, dose: 200.0 mg/kg/injection, schedule: Q01DX009 (ip), vehicle: saline with Tween-80
[6] = endpoint: mean survival time, dose: 200.0 mg/kg/injection, schedule: Q04DX003 (ip), vehicle: saline with Tween-80
[7] = endpoint: mean survival time, dose: 400.0 mg/kg/injection, schedule: Q01DX009 (ip), vehicle: saline with Tween-80
[8] = endpoint: mean survival time, dose: 400.0 mg/kg/injection, schedule: Q04DX003 (ip), vehicle: saline with Tween-80
[9] = endpoint: mean survival time, dose: 100.0 mg/kg/injection, schedule: Q01DX001 (ip), vehicle: saline with Tween-80
[10] = endpoint: mean survival time, dose: 100.0 mg/kg/injection, schedule: Q04DX002 (ip), vehicle: saline with Tween-80
[11] = endpoint: mean survival time, dose: 200.0 mg/kg/injection, schedule: Q01DX001 (ip), vehicle: saline with Tween-80
[12] = endpoint: mean survival time, dose: 200.0 mg/kg/injection, schedule: Q04DX002 (ip), vehicle: saline with Tween-80
[13] = endpoint: mean survival time, dose: 400.0 mg/kg/injection, schedule: Q01DX001 (ip), vehicle: saline with Tween-80
[14] = endpoint: mean survival time, dose: 12.5 mg/kg/injection, schedule: Q04DX003 (ip), vehicle: saline with Tween-80
[15] = endpoint: mean survival time, dose: 25.0 mg/kg/injection, schedule: Q04DX003 (ip), vehicle: saline with Tween-80

Measured: T/C

O=C(O/N=C(\c1ccccc1)c1cccs1)N(c1ccccc1)c1ccccc1
inactive: endpoint: mean survival time, dose: 100.0 mg/kg/injection, schedule: Q01DX001 (ip), vehicle: other 92 % of control | endpoint: mean survival time, dose: 200.0 mg/kg/injection, schedule: Q01DX001 (ip), vehicle: other 98 % of control | endpoint: mean survival time, dose: 400.0 mg/kg/injection, schedule: Q01DX001 (ip), vehicle: other 92 % of control

O=c1cc(O)c(Cl)n[nH]1
inactive: endpoint: mean survival time, dose: 25.0 mg/kg/injection, schedule: Q01DX009 (ip), vehicle: other 94 % of control | endpoint: mean survival time, dose: 50.0 mg/kg/injection, schedule: Q01DX009 (ip), vehicle: other 94 % of control | endpoint: mean survival time, dose: 100.0 mg/kg/injection, schedule: Q01DX009 (ip), vehicle: other 97 % of control | endpoint: mean survival time, dose: 200.0 mg/kg/injection, schedule: Q01DX009 (ip), vehicle: other 92 % of control | endpoint: mean survival time, dose: 400.0 mg/kg/injection, schedule: Q01DX009 (ip), vehicle: other 88 % of control

C=CC[n+]1cccc2ccccc21
inactive: [1] 111 % of control

CC(C)CC(C)COC(=O)c1c(Cl)c(Cl)c(Cl)c(Cl)c1C(=O)O (configuration not stated)
inactive: [2] 90 % of control | [3] 90 % of control

CC[Si](CC)(CC)c1ccc(CCNCCS)s1
inactive: endpoint: mean survival time, dose: 37.5 mg/kg/injection, schedule: Q01DX009 (ip), vehicle: saline 107 % of control | endpoint: mean survival time, dose: 75.0 mg/kg/injection, schedule: Q01DX009 (ip), vehicle: saline 101 % of control

O=C1c2ccccc2C(=O)c2ccccc21
inactive: [4] 93 % of control | [1] 87 % of control | [5] 100 % of control | [6] 93 % of control | [7] 94 % of control | [8] 88 % of control

CCCOC(=O)c1cc([N+](=O)[O-])cc([N+](=O)[O-])c1Sc1ncnc2nc[nH]c12
inactive: endpoint: mean survival time, dose: 0.63 mg/kg/injection, schedule: Q01DX005 (ip), vehicle: other 102 % of control | endpoint: mean survival time, dose: 1.25 mg/kg/injection, schedule: Q01DX005 (ip), vehicle: other 105 % of control | endpoint: mean survival time, dose: 2.5 mg/kg/injection, schedule: Q01DX005 (ip), vehicle: other 102 % of control | endpoint: mean survival time, dose: 5.0 mg/kg/injection, schedule: Q01DX005 (ip), vehicle: other 105 % of control | endpoint: mean survival time, dose: 10.0 mg/kg/injection, schedule: Q01DX005 (ip), vehicle: other 105 % of control | endpoint: mean survival time, dose: 20.0 mg/kg/injection, schedule: Q01DX005 (ip), vehicle: other 106 % of control | endpoint: mean survival time, dose: 40.0 mg/kg/injection, schedule: Q01DX005 (ip), vehicle: other 113 % of control

COC(=O)c1csc(NC2OC(CO)C(O)C2O)n1 (configuration not stated)
inactive: endpoint: median survival time, dose: 45.9 mg/kg/injection, schedule: Q01DX005 (ip), vehicle: saline 100 % of control | endpoint: median survival time, dose: 91.8 mg/kg/injection, schedule: Q01DX005 (ip), vehicle: saline 100 % of control | endpoint: median survival time, dose: 183.6 mg/kg/injection, schedule: Q01DX005 (ip), vehicle: saline 97 % of control

CC12CCCC1=C1CCC3CC(OC(=O)c4ccccc4)CCC3(C)C1CC2 (configuration not stated)
inactive: [1] 100 % of control | [6] 96 % of control | [8] 100 % of control

COc1cc(C=C(c2ccc(N(C)C)cc2)c2ccc(N(C)C)cc2)c(OC)c2ccccc12
inactive: [9] 102 % of control | [10] 90 % of control | [11] 101 % of control | [12] 87 % of control | [13] 90 % of control

COc1cc(OC)c(OC)cc1/C=C/c1ccc2ccccc2n1
inactive: [1] 92 % of control | [6] 96 % of control | [8] 96 % of control

O=C(c1ccc(F)cc1)c1ccccc1Cl
inactive: [4] 102 % of control | [1] 105 % of control | [5] 97 % of control | [6] 98 % of control | [7] 97 % of control | [8] 98 % of control

CCOC(=O)C=C(c1ccc(OC)c(OC)c1)c1ccc(OC)c(OC)c1
inactive: [2] 108 % of control | [3] 100 % of control | endpoint: mean survival time, dose: 400.0 mg/kg/injection, schedule: Q01DX001 (ip), vehicle: saline 102 % of control

O=C1C=C(Cl)C(=O)N1c1cccc(Cl)c1
inactive: endpoint: mean survival time, dose: 6.25 mg/kg/injection, schedule: Q04DX003 (ip), vehicle: saline with Tween-80 104 % of control | [14] 95 % of control | [15] 95 % of control

COc1cc(/C=N/N2C(=O)CSC2=S)ccc1OCc1ccccc1
inactive: [9] 95 % of control | [11] 91 % of control | [13] 89 % of control

O=C(Nc1c(Cl)cccc1Cl)OCCOc1ccc(Br)cc1
inactive: endpoint: mean survival time, dose: 50.0 mg/kg/injection, schedule: Q01DX009 (ip), vehicle: saline with Tween-80 100 % of control | [4] 103 % of control | [5] 107 % of control

Cc1cc(C)nc(NC(=S)N/N=C/c2ccc(O)cn2)n1
inactive: [10] 87 % of control | [12] 91 % of control | endpoint: mean survival time, dose: 400.0 mg/kg/injection, schedule: Q04DX002 (ip), vehicle: saline with Tween-80 91 % of control

COc1ccc(NC(=O)CCl)cc1
inactive: endpoint: mean survival time, dose: 25.0 mg/kg/injection, schedule: Q01DX009 (ip), vehicle: Klucel (hydroxypropylcellulose) (HPC) 96 % of control and 98 % of control | endpoint: mean survival time, dose: 50.0 mg/kg/injection, schedule: Q01DX009 (ip), vehicle: Klucel (hydroxypropylcellulose) (HPC) 96 % of control and 98 % of control | endpoint: mean survival time, dose: 100.0 mg/kg/injection, schedule: Q01DX009 (ip), vehicle: Klucel (hydroxypropylcellulose) (HPC) 96 % of control and 104 % of control

CC(=O)OCc1c(Cl)ccc(Cl)c1Cl
inactive: [4] 98 % of control | endpoint: mean survival time, dose: 100.0 mg/kg/injection, schedule: Q04DX003 (ip), vehicle: saline sonified 107 % of control | [5] 100 % of control | endpoint: mean survival time, dose: 200.0 mg/kg/injection, schedule: Q04DX003 (ip), vehicle: saline sonified 96 % of control | [7] 100 % of control | endpoint: mean survival time, dose: 400.0 mg/kg/injection, schedule: Q04DX003 (ip), vehicle: saline sonified 96 % of control

CCN(CC)C(=O)c1ccc[n+](Cc2ccc(Cl)c(Cl)c2)c1
inactive: endpoint: mean survival time, dose: 100.0 mg/kg/injection, schedule: Q04DX003 (ip), vehicle: saline 103 % of control

C[N+]1(C)N=C([O-])N(c2cccc3ccccc23)C1=O
inactive: [9] 98 % of control | [4] 103 % of control | [11] 101 % of control | [5] 108 % of control | [13] 98 % of control

OC1C=CC(O)C1 (configuration not stated)
inactive: endpoint: mean survival time, dose: 75.0 mg/kg/injection, schedule: Q01DX001 (ip), vehicle: saline 97 % of control | endpoint: mean survival time, dose: 150.0 mg/kg/injection, schedule: Q01DX001 (ip), vehicle: saline 101 % of control

CCOc1ccc(Br)cc1/C=C(\C#N)c1ccc([N+](=O)[O-])cc1
inactive: endpoint: mean survival time, dose: 0.1 mg/kg/injection, schedule: Q01DX009 (ip), vehicle: saline with Tween-80 98 % of control | endpoint: mean survival time, dose: 0.2 mg/kg/injection, schedule: Q01DX009 (ip), vehicle: saline with Tween-80 97 % of control | endpoint: mean survival time, dose: 0.39 mg/kg/injection, schedule: Q01DX009 (ip), vehicle: saline with Tween-80 93 % of control | endpoint: mean survival time, dose: 0.4 mg/kg/injection, schedule: Q01DX009 (ip), vehicle: saline with Tween-80 90 % of control | [14] 87 % of control | [15] 89 % of control | endpoint: mean survival time, dose: 50.0 mg/kg/injection, schedule: Q04DX003 (ip), vehicle: saline with Tween-80 86 % of control

COc1ccc(SC2=CC(=O)c3ccccc3C2=O)cc1
inactive: endpoint: mean survival time, dose: 75.0 mg/kg/injection, schedule: Q01DX001 (ip), vehicle: other 97 % of control | endpoint: mean survival time, dose: 150.0 mg/kg/injection, schedule: Q01DX001 (ip), vehicle: other 95 % of control
